Laboratory results published in patent US20090062355A1, “Pharmaceutical Product” (Takeda Pharmaceutical Company Limited, priority 2006, published 2009).
Where two headings read alike, the source gives them in different places.

Experiments:
Assay type in all cases: cell-based
[1] = tested on: mouse macrophage cell line RAW264.7 cells; assay: Inhibitory action on intracellular signal transduction after LPS stimulation (Bioplex phosphorylated protein assay); settings: LPS 10 ng/mL; 1, 3, 10, 20, 30 min; FIG. 1
From the text: FIG. 1-1 is a graph showing the effect of test compound 1 on phosphorylated protein (ATF2) after LPS addition in mouse macrophage cells. An average of triplicate measurement values is shown, mean±standard error (Experimental Example 5, n=3).
FIG. 1-2 is a graph showing the effect of test compound 1 on phosphorylated protein (JNK) after LPS addition in mouse macrophage cells. An average of triplicate measurement values is shown, mean±standard error (Experimental Example 5, n=3).
FIG. 1-3 is a graph showing the effect of test compound 1 on phosphorylated protein (p38MAPK) after LPS addition in mouse macrophage cells. An average of triplicate measurement values is shown, mean±standard error (Experimental Example 5, n=3).
FIG. 1-4 is a graph showing the effect of test compound 1 on phosphorylated protein (IκBα) after LPS addition in mouse macrophage cells. An average of triplicate measurement values is shown, mean±standard error (Experimental Example 5, n=3). […]
A suppressive effect of test compound 1 (compound 72 of • Reference Example B66) on the production of various cytokines by lipopolysaccharide (LPS), which is a TLR4 agonist, using mouse macrophage cell line RAW264.7 cells was examined. […] The supernatant was recovered, and phosphorylated protein was quantified using Bioplex phosphorylated protein assay (Bio-Rad). […]

[2] = tested on: mouse macrophage cell line RAW264.7 cells; assay: Suppressive action on production of mediator from LPS stimulated macrophage; settings: LPS 10 ng/ml, overnight culture
Procedure: A suppressive effect of test compound 1 (compound 72 of Reference Example B66) on the production of various mediators by lipopolysaccharide (LPS), which is a TLR4 agonist, using mouse macrophage cell line RAW264.7 cells was examined. The day before the experiment, the cells were suspended to 5×10^5 cells/mL in RPMI1640 medium supplemented with 10% inactivated fetal bovine serum, plated on a 96 well microplate at 0.2 mL/well and incubated at 37° C., 5% CO2/95% air overnight. The medium was changed to RPMI1640 medium supplemented with 1% inactivated fetal bovine serum, and test compound 1 and LPS (final concentration 10 ng/ml) was added. After overnight culture, cytokine, chemokine, prostaglandin E2 in the culture supernatant was quantified by ELISA, and nitrite ion (stable metabolite of NO) concentration was quantified by a fluorescence method using 2,3-diaminonaphthalene. Test compound 1 was dissolved in N,N-dimethylformamide to 10 mM, diluted with RPMI1640 medium supplemented with 1% inactivated fetal bovine serum to 0.1 mM, further diluted with the medium to 10-fold concentration of the final concentration and 1/10 thereof was added. Test compound 1 suppressed almost all the examined mediator production at an equivalent IC50.

[3] = tested on: Peripheral Blood Mononuclear Cells; assay: Influence on binding of LPS to PBMC (flow cytometry); settings: 10 μM; 4° C. 30 min, then labeled LPS 50 ng/mL, 1% human serum, 37° C. 45 min; FIG. 2
From the text: FIG. 2 is a graph showing the effects of test compound 1, anti-CD14 antibody and anti-CCR5 antibody on the binding of LPS to PBMC. With an average of triplicate measurement values of LPS alone as 100%, % averages of triplicate measurement values of other groups are shown, mean±standard error (Experimental Example 6, results of 4 independent tests using PBMC obtained from the blood of different 4 subjects).
Peripheral Blood Mononuclear Cells were Separated by a conventional method, and reacted with test compound 1 (compound 72 of Reference Example B66), anti-human CD14 monoclonal antibody MEM-18 and anti-human CCR5 monoclonal antibody 2D7 (negative control) at 4° C. for 30 min. The cells were reacted with fluorescence label LPS (E. coli O55:B5, Alexa Fluor® 488-labeled, 50 ng/mL) in the presence of 1% human serum at 37° C. for 45 min. The cells (10,000 cells) were washed and the binding of fluorescence label LPS was examined by flow cytometry.

With `CCOC(=O)C1=CCCC[C@H]1S(=O)(=O)Nc1ccc(F)cc1Cl` [test compound 1, ethyl (6R)-6-[(2-chloro-4-fluoroanilino)sulfonyl]-1-cyclohexene-1-carboxylate] the “phosphorylated protein after LPS addition (ATF2, JNK, p38MAPK, IκBα, ERK1/2, p90RSK, STAT2, p70 S6 Kinase)” value [1] was “suppressed phosphorylation of all examined proteins involved in LPS signal transduction”, the IC50 ([2]; ELISA, read-out: IC50, IL-1α production) was 1.1 nM and the IC50 ([2]; ELISA, read-out: IC50, IL-6 production) was 2 nM. It also gave an IC50 ([2]; ELISA, read-out: IC50, IL-10 production) of 1.6 nM, an IC50 ([2]; ELISA, read-out: IC50, MIP-2 production) of 7.1 nM and an IC50 ([2]; ELISA, read-out: IC50, PGE2 production) of 4 nM. For the same molecule, the IC50 ([2]; ELISA, read-out: IC50, TNF-α production) was 3.1 nM, the IC50 ([2]; fluorescence method with 2,3-diaminonaphthalene, read-out: IC50, NO production (nitrite ion)) was 1.8 nM and the “binding of fluorescence label LPS to PBMC” value [3] was “completely failed to inhibit”.
